{"source": "patent US6977083B1", "about": "“Bioadhesive tablet containing testosterone/testosterone ester mixtures and method for producing a predetermined testosterone time-release profile with same” (Jenapharm GmbH & Co. KG, priority 1998, dated 2005)", "origin": "cited, not measured here", "settings": "after oral or parenteral administration", "data": [{"compound": "C[C@]12CC[C@H]3[C@@H](CCC4=CC(=O)CC[C@@]43C)[C@@H]1CC[C@@H]2O", "note": "[testosterone]", "values": [{"measurement": "plasma half-life", "result": "about 10 minutes"}]}]}
